Data published in publication PMC8876511, “Two out of Three Musketeers Fight against Cancer: Synthesis, Physicochemical, and Biological Properties of Phosphino Cu^I, Ru^II, Ir^III Complexes” (Pharmaceuticals, 2022).

Tested on: A549 cells
Assay: Annexin V-FITC/PI double staining, flow cytometry
Format: cell-based, human
Conditions: A549, 50 μM, 24 h
Experimental: The cell death induced by selected Ir(III) and Ru(II) complexes was assessed using Annexin V-FITC/PI double staining. Based on this assay the differentiation of the following cells population was possible: viable cells (Annexin-FITC negative, PI negative), apoptotic cells (Annexin-FITC positive, PI negative), late apoptotic cells (Annexin-FITC positive and PI positive), and necrotic cells (Annexin-FITC negative, PI positive). Treatment of A549 cells with Ir(III) or Ru(II) complexes leads to a dose-dependent increase in the percentage of cells in each phase (Figure 5).
Cell death was quantified using the AnnexinV-FITC/PI double staining kit (Sigma Aldrich). The cells (1 × 10^5 per well) were cultured overnight in 12-well plates. Then, cells were treated with tested compounds for 24 h. After this time, cells were passaged, collected by centrifugation, and washed twice in Hank’s Balanced Salt Solution (HBBS). The cells were then re-suspended in 500 μL binding buffer and stained with annexin V-FITC and PI according to the manufacturer’s instructions (Sigma Aldrich). Stained A549 cells were then examined using a Guava® easyCyte™ flow cytometer equipped with a 488 nm laser. The obtained data were analyzed using InCyte software (MerckMillipore, Burlington, MA, USA).

In the case of “Ru(η^6-p-cymene)Cl2Ph2PCH2N(CH2CH3)2 [1b]”, the “late apoptotic cells (upper right quadrant)” value is reported as 30%.
